This is an account of results in US20230113037A1 (Bayer Aktiengesellschaft, priority 2019, published 2023).

SMILES strings stand for the structures. Values joined by “and” are separate entries in the source; they are usually repeats but may differ in a detail not shown here. Identical values can stand only once. Like-named read-outs stand apart in the source and are kept apart here.

In assay [1] the target is T1, AHR (Mus musculus, UniProt P30561).
T1 sequence (P30561 1-848 P471L/N533S/M589L): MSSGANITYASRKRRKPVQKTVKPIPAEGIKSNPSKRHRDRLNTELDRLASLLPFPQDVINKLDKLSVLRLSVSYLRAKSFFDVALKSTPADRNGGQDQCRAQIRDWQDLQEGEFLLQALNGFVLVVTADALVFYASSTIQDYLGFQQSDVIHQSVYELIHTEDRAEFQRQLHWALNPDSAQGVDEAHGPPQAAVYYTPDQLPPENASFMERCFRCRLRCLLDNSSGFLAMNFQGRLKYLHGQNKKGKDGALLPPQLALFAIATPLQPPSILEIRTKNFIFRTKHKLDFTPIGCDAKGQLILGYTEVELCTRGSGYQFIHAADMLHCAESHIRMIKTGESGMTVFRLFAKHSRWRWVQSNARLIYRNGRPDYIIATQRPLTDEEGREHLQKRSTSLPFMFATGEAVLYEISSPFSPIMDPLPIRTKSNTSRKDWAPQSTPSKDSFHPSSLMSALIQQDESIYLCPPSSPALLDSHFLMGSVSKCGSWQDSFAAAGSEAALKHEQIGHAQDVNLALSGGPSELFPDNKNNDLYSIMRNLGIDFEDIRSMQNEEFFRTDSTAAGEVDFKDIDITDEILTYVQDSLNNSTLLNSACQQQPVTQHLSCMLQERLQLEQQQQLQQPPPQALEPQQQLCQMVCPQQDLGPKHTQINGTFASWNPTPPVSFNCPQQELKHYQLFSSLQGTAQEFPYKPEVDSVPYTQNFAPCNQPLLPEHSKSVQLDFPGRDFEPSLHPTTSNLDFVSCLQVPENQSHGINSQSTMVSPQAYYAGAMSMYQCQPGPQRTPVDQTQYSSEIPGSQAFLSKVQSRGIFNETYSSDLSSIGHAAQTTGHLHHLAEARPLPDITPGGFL
Kind of assay: In vitro assay 3: antagonism in mouse cell line (AHR transactivation, firefly luciferase reporter, kynurenic acid prestimulated). It is filed as cell-based. In outline: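 Mouse cells stably carrying a DRE-driven AHR-inducible firefly luciferase reporter were prestimulated with the endogenous agonist kynurenic acid before compound addition. Luciferase read by SteadyGlo; cells without kynurenic acid served as full-inhibition control, with normalization to positive and negative controls. Repeat tests reported as mean or median.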
In general terms: A reporter such as luciferase makes a cellular process visible.

Assay [2] has as its target T2, AHR (Homo sapiens, UniProt P35869).
T2 construct: U87 MG glioblastoma cells (ATCC #HTB-14) endogenously expressing AHR; endogenous in cells; host or cells: U87 MG glioblastoma cells (ATCC #HTB-14)
T2 sequence (P35869 11-848): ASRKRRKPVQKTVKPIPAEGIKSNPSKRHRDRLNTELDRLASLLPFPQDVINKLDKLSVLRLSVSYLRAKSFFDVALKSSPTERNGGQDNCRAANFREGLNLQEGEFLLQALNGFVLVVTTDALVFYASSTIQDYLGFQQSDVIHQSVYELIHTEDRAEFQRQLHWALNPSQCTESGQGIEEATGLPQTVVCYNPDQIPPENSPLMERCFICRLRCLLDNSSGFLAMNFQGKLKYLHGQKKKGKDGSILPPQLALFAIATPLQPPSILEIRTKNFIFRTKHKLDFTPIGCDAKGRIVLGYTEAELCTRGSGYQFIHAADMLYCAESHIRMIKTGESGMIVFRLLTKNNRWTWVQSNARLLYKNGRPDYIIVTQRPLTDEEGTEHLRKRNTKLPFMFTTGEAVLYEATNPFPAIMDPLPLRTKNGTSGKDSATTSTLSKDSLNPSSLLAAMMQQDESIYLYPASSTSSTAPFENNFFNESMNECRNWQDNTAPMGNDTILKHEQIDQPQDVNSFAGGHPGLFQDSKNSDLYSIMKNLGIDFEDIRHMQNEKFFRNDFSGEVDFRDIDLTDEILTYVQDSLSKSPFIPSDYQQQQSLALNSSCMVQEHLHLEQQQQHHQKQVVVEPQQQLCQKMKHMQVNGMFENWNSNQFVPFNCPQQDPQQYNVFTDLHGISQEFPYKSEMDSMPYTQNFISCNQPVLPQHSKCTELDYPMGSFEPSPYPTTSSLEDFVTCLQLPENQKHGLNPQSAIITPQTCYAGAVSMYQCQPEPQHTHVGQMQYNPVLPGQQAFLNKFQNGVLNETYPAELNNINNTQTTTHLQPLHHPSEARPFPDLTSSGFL
Kind of assay: In vitro assay 1: antagonism in human cell line (AHR transactivation, firefly luciferase reporter, kynurenic acid prestimulated). It is filed as cell-based. Particulars: AHR Antagonism Human IC50 [M]. The method in brief: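 U87 MG glioblastoma cells with endogenous AHR, stably carrying a DRE-driven firefly luciferase reporter and constitutive Renilla reporter, prestimulated with kynurenic acid before compound addition. Firefly and Renilla read by dual luciferase; Renilla flags toxicity; normalized to controls (150 μM kynurenic acid + 5 μM staurosporine as full inhibition); repeat values averaged or median.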

Setting [3] is: mouse Hepa 1c1c7 cells, 200 μM kynurenic acid, 20 hours, read-out: AHR Antagonism Mouse IC50.
Where [4] appears, read: read-out: AHR Antagonism Mouse IC50, mouse Hepa 1c1c7 cells, 200 μM kynurenic acid, 20 hours.
[5] abbreviates: Hepa 1c1c7 cells, 200 μM kynurenic acid, 20 hours, firefly luciferase reporter, read-out: AHR Antagonism Mouse IC50.

As usually defined, the IC50 is the midpoint of a concentration-inhibition curve. Regarding `Cc1noc(-c2nc3c4ccccc4nc(N[C@@H]4CCCCNC4=O)n3n2)n1` [Example 131, (3R)-3-{[2-(3-methyl-1,2,4-oxadiazol-5-yl)[1,2,4]triazolo[1,5-c]quinazolin-5-yl]amino}azepan-2-one], the 50% inhibitory concentration (IC50) is 93.8 nM on AHR [1] (setting [3]) and 1.79e-07 M against AHR [2].

With `O=C1NCCC[C@H]1Nc1nc2ccccc2c2nc(-c3ccc(Cl)cc3OC(F)(F)F)nn12` [Example 519, (3R)-3-({2-[4-chloro-2-(trifluoromethoxy)phenyl][1,2,4]triazolo[1,5-c]quinazolin-5-yl}amino)piperidin-2-one], the half-maximal inhibitory concentration (IC50) on AHR [1] (setting [3]) was found to be 22.2 nM; against AHR [2] it was 3.65e-08 M.

Regarding `COc1cccc(-c2nc3c4c(C)cccc4nc(NC4CCNC4=O)n3n2)c1` (single isomer, unassigned) [Example 190, 3-{[2-(3-methoxyphenyl)-10-methyl[1,2,4]triazolo[1,5-c]quinazolin-5-yl]amino}pyrrolidin-2-one], the IC50 on AHR [1] (setting [4]) came to 252 nM; against AHR [2] it was 1.54e-07 M.

In the case of `N#Cc1cccc2c1nc(N[C@@H]1CCCCNC1=O)n1nc(-c3cn[nH]c3)nc21` [Example 765, 5-{[(3R)-2-oxoazepan-3-yl]amino}-2-(1H-pyrazol-4-yl)[1,2,4]triazolo[1,5-c]quinazoline-7-carbonitrile], the figures for the half-maximal inhibitory concentration (IC50) on AHR [1] (setting [4]) and against AHR [2] were 5850 nM and 7.79e-07 M, respectively.

With `N#Cc1cccc2c1nc(N[C@@H]1CCCCNC1=O)n1nc(-c3cnn(C4CC4)c3)nc21` [Example 761, 2-(1-cyclopropyl-1H-pyrazol-4-yl)-5-{[(3R)-2-oxoazepan-3-yl]amino}[1,2,4]triazolo[1,5-c]quinazoline-7-carbonitrile], the concentration for half-maximal inhibition (IC50) on AHR [1] (setting [3]) worked out at 9.93 nM; at AHR [2] it was 3.11e-09 M.

With `CCn1cc(-c2nc3c4cccc(F)c4nc(N[C@@H]4CNCCNC4=O)n3n2)cn1` [Example 961, (6R)-6-{[2-(1-ethyl-1H-pyrazol-4-yl)-7-fluoro-[1,2,4]triazolo[1,5-c]quinazolin-5-yl]amino}1-4,-diazepan-5-one], the IC50 was 272 nM at AHR [1] (setting [5]) and 7.95e-07 M on AHR [2] (firefly luciferase reporter).

With `CCn1cc(-c2nc3c4cccc(C(F)(F)F)c4nc(N[C@H]4CNCCNC4=O)n3n2)c(C)n1` [Example 949, (6S)-6-{[2-(1-ethyl-3-methyl-1H-pyrazol-4-yl)-7-(trifluoromethyl)[1,2,4]triazolo[1,5-c]quinazolin-5-yl]amino}-1,4-diazepan-5-one], the IC50 stood at 14.7 nM on AHR [1] (setting [5]) and 4.4e-09 M at AHR [2] (firefly luciferase reporter).

`Cn1cc(-c2nc3c4cccc(Br)c4nc(N[C@H]4CSCCNC4=O)n3n2)cn1` [Example 841, (6R)-6-{[7-bromo-2-(1-methyl-1H-pyrazol-4-yl)[1,2,4]triazolo[1,5-c]quinazolin-5-yl]amino}-1,4-thiazepan-5-one]: the half-inhibitory concentration (IC50) on AHR [1] (setting [5]) is 3.01 nM; against AHR [2] (firefly luciferase reporter) it was 1.82e-09 M.

Consider `N#Cc1cccc2c1nc(N[C@@H]1CNCCNC1=O)n1nc(-c3cnn(C(F)F)c3)nc21` [Example 934, 2-[1-(difluoromethyl)-1H-pyrazol-4-yl]-5-{[(6R)-5-oxo-1,4-diazepan-6-yl]amino}[1,2,4]triazolo[1,5-c]quinazoline-7-carbonitrile], for which the IC50 at AHR [1] (read-out: AHR Antagonism Mouse IC50, Hepa 1c1c7 cells, 200 μM kynurenic acid, 20 hours, firefly luciferase reporter) amounted to 116 nM; at AHR [2] (firefly luciferase reporter) it was 2.39e-07 M.

Consider `C[C@@H](Nc1nc2c(Br)cccc2c2nc(-c3cnn(C)c3)nn12)C(=O)NCCN1CCNCC1` [Example 993, N^2-[7-bromo-2-(1-methyl-1H-pyrazol-4-yl)[1,2,4]triazolo[1,5-c]quinazolin-5-yl]-N-[2-(piperazin-1-yl)ethyl]-D-alaninamide-hydrogen chloride (1/2)], for which the half-maximal inhibitory concentration (IC50) on AHR [1] (setting [5]) worked out at 4590 nM; on AHR [2] (firefly luciferase reporter) it was 5.88e-07 M.

For `COc1ccc(-c2nc3c4ccccc4nc(NC4CCCNC4=O)n3n2)cc1` (single isomer, unassigned) [Example 38, 3-{[2-(4-methoxyphenyl)[1,2,4]triazolo[1,5-c]quinazolin-5-yl]amino}piperidin-2-one], the IC50 at AHR [1] (setting [3]) amounted to 69.8 nM; at AHR [2], 1.94e-08 M.

On to `COc1ccc(-c2nc3c4ccc(C)cc4nc(N[C@@H]4CNCCNC4=O)n3n2)cc1` [Example 274, (6R)-6-{[2-(4-methoxyphenyl)-8-methyl[1,2,4]triazolo[1,5-c]quinazolin-5-yl]amino}-1,4-diazepan-5-one], for which the IC50 on AHR [1] (setting [3]) stood at 2150 nM; against AHR [2], 1.09e-06 M.

`CC(C)n1cc(-c2nc3c4cccc(OC(F)(F)F)c4nc(N[C@@H]4CCCCNC4=O)n3n2)cn1` [Example 759, (3R)-3-({2-[1-(propan-2-yl)-1H-pyrazol-4-yl]-7-(trifluoromethoxy)[1,2,4]triazolo[1,5-c]quinazolin-5-yl}amino)azepan-2-one]: the IC50 came to 25 nM at AHR [1] (setting [3]) and 7.68e-09 M at AHR [2].

As for `COc1cccc(-c2nc3c4ccccc4nc(N[C@@H](CCCCN)C(N)=O)n3n2)c1` [Example 114, N^2-[2-(3-methoxyphenyl)[1,2,4]triazolo[1,5-c]quinazolin-5-yl]-L-lysinamide], the half-maximal inhibitory concentration (IC50) at AHR [1] (setting [3]) was 5510 nM and > 5710 nM; at AHR [2] it was greater than 2e-05 M.

On to `O=C1NCCCC[C@H]1Nc1nc2cccc(C3CC3)c2c2nc(-c3cccc(F)c3)nn12` [Example 175, (3R)-3-{[10-cyclopropyl-2-(3-fluorophenyl)[1,2,4]triazolo[1,5-c]quinazolin-5-yl]amino}azepan-2-one], for which the IC50 on AHR [1] (setting [3]) stood at 22.3 nM; on AHR [2] it was 3.24e-08 M.

Take `Cc1cccc(C)c1-c1nc2c3ccccc3nc(N[C@@H]3CCCCNC3=O)n2n1` [Example 623, (3R)-3-{[2-(2,6-dimethylphenyl)[1,2,4]triazolo[1,5-c]quinazolin-5-yl]amino}azepan-2-one]: the values for the half-maximal inhibitory concentration (IC50) on AHR [1] (setting [3]) and against AHR [2] were 4.65 nM and 3.37e-07 M, respectively.

On to `CCCNC(=O)[C@@H](C)Nc1nc2ccccc2c2nc(-c3ccc(S(C)(=O)=O)cc3)nn12` [Example 439, N^2-{2-[4-(methanesulfonyl)phenyl][1,2,4]triazolo[1,5-c]quinazolin-5-yl}-N-propyl-D-alaninamide], for which the IC50 at AHR [1] (setting [3]) was 27 nM; against AHR [2], 4.52e-08 M.

Take `O=C1NCCCC[C@H]1Nc1nc2c(Br)cccc2c2nc(-c3cnn(CC4CCC4)c3)nn12` [Example 832, (3R)-3-({7-bromo-2-[1-(cyclobutylmethyl)-1H-pyrazol-4-yl][1,2,4]triazolo[1,5-c]quinazolin-5-yl}amino)azepan-2-one]: the 50% inhibitory concentration (IC50) at AHR [1] (setting [5]) came out at 5.68 nM; against AHR [2] (firefly luciferase reporter), 2.58e-09 M.

As for `COc1ccc(-c2nc3c4cccc(OCC(C)(C)O)c4nc(N[C@@H]4CCCCNC4=O)n3n2)cc1` [Example 997, (3R)-3-{[7-(2-hydroxy-2-methylpropoxy)-2-(4-methoxyphenyl)[1,2,4]triazolo[1,5-c]quinazolin-5-yl]amino}azepan-2-one], the figures for the half-maximal inhibitory concentration (IC50) on AHR [1] (setting [5]) and against AHR [2] (firefly luciferase reporter) were 138 nM and 8.11e-08 M, respectively.
